Measured values published in patent publication US20260286420A1, “REAGENT, KIT, METHOD FOR DETECTING ADP, AND USE THEREOF” (Neubo Apptech Co., Ltd., priority 2025, published 2026).

Test: ATP-removal effect of ATPS and pyrophosphatase, luciferase readout
Assay type: biochemical
Conditions: 100 μM ATP, 40 min at room temperature
Experimental: The ATP-removal effect of the reagent in Example 1 was verified.
ATP sulfurylase was prepared in the following buffer: 50 mM Tris-HCl buffer (pH 7.4)+10 mM MgCl2+20 mM Na2MoO4, where the concentration of each component is the final concentration in the resultant solution.
Reagent for ADP detection: 50 mM Tris-HCl buffer (pH 7.4)+20 mM MgSO4+50 mM KCl+2 mM EDTA+2 mM EGTA+0.1 mM D-luciferin+0.1 mM PEP-K (phosphoenolpyruvate monopotassium salt)+50 μg/mL luciferase+20 U/mL a pyruvate kinase, where the concentration of each component is the final concentration in the resultant solution.
The bioluminescence detection instrument was an EnVision (Perkin Elmer).
Next, 25 μL of ATP ([…]) was added to each well of a 96-well white opaque assay plate, followed by the addition of 25 μL of pyrophosphatase (PPA: 10 U/mL) and ATP sulfurylase (ATPS) at concentrations of 2 μg/mL, 1 μg/mL, and 0.5 μg/mL.
After incubation at room temperature (22° C.-25° C.) for 40 minutes, 50 μL of the reagent for ADP detection was added and mixed uniformly, and the fluorescence values were read after incubation was performed at room temperature for 10 minutes.
After 1 μM ATP+0.1 mM D-luciferin+50 μg/mL luciferase+50 mM Tris-HCl buffer (pH 7.4)+20 mM MgSO4 were incubated at room temperature for 10 minutes, the fluorescence value read was 439,640.
After 0.1 μM ATP+0.1 mM D-luciferin+50 μg/mL luciferase+50 mM Tris-HCl buffer (pH 7.4)+20 mM MgSO4 were incubated at room temperature for 10 minutes, the fluorescence value read was 47,720.
The remaining ATP after the action of ATPS and PPA was determined by comparing with the fluorescence values under conditions of ATP at 1 μM and 0.1 μM (see Table 2). It can be seen that the remaining ATP of 100 μM ATP under the action of ATPS (1 μg/mL) and pyrophosphatase was about 0.006%.

For ATPS, which “Luminescence (RLU)” value (ATPS 0.5 μg/mL + PPA 10 U/mL) is on record?
Its value is 3.44E+03 RLU.

And the “Remaining ATP (%)” value (ATPS 0.5 μg/mL + PPA 10 U/mL)?
The value was 0.0072%.

And the “Luminescence (RLU)” value (ATPS 1 μg/mL + PPA 10 U/mL)?
The value was 2.88E+03 RLU.

And the “Luminescence (RLU)” value (ATPS 2 μg/mL + PPA 10 U/mL)?
The value was 2.24E+03 RLU.

What about the “Remaining ATP (%)” value (ATPS 2 μg/mL + PPA 10 U/mL) of the same substance?
The value was 0.0047%.
